According to article PMC8619673 (Cells, 2021):

Assays:
[1] = test system: Aβ-GFP SH-SY5Y cells; assay: Neurite outgrowth analysis; type: cell-based, Human; conditions: 5 µM
Experimental: Aβ-GFP SH-SY5Y cells (6 × 10^4 cells) were seeded on a 24-well plate with retinoic acid (10 µM) on day 1. Tested coumarins (5 µM) and doxycycline (5 μg/mL) were added on day 2, as described. On day 8, the cells were washed with phosphate-buffered saline (PBS) twice and fixed in 4% paraformaldehyde at 4 °C for 15 min. Cells were permeabilized with Triton X-100 (0.1%) for 10 min, blocked with bovine serum albumin (3%) for 20 min, and stained with anti-neuronal TUBB3 antibody (1:1000; Covance, Princeton, NJ, USA) at 4 °C overnight. The next day, cells were washed with PBS twice and stained by a secondary donkey anti-rabbit Alexa Fluor® 555 antibody (1:1000; Thermo Fisher Scientific) and 4′,6-diamidino-2-phenylindole (DAPI; 0.1 µg/mL; Sigma-Aldrich) at room temperature for 1 h. Neuronal images from at least 60 individual fields (150–250 neurons per field) per experiment were captured at excitation 531/40 nm and emission 593/40 nm wavelengths using an ImageXpress micro confocal high-content imaging system (Molecular Devices). Neurite total length (μm) and numbers of process (the number of primary neurites originated from the cell body of a neuron) and branch (the number of secondary neurites extended from primary neurites) were analyzed using a MetaXpress neurite outgrowth application module (Molecular Devices). For each sample, around 6000 cells were analyzed in each of three independent experiments.
(§1) Lentiviral short hairpin RNA (shRNA) targeting TRKB (TRCN0000002243, TRCN0000002245, and TRCN0000002246) and a negative-scrambled control (TRC2.Void) were obtained from the National RNAi Core Facility, IMB/GRC, Academia Sinica (Taipei, Taiwan). As described, cells were plated on 6- or 24-well plates, with retinoic acid added on day 1. Cells were infected with lentivirus (multiplicity of infection, 3 for each shRNA), with polybrene (8 µg/mL; Sigma-Aldrich) on the next day. Cells were pretreated with tested compounds (5 µM) for 8 h after changing medium, followed by doxycycline on day 3. Cells were collected for further analysis on day 9. The hairpin sequences of targeting shRNA were below: • TRCN0000002243: 5’-[…]ctcgag[…]-3’ • TRCN0000002245: 5’-[…]ctcgagATGTT-[…]-3’ • TRCN0000002246: 5’-[…]ctcgag[…]-3’ • TRC2.Void: 5’-[…]ctcgag[…]-3’

[2] = test system: TRKB; assay: Western blot, TRKB and p-TRKB; type: cell-based, Human; conditions: 5 µM
Experimental: (§2) Cellular proteins were prepared using a lysis buffer containing NaCl (150 mM), ethylene diamine tetraacetic acid (EDTA, 1 mM, pH8.0), Tris-HCl (50 mM, pH8.0), ethylene glycol tetraacetic acid (EGTA, 1 mM, pH8.0), sodium dodecyl sulfate (SDS, 0.1%), sodium deoxycholate (SD, 0.5%), Triton X-100 (1%), and protease (Sigma-Aldrich), and phosphatase (Abcam, Cambridge, MA, USA) inhibitor cocktails. After quantitation by protein assay kit (Bio-Rad, Hercules, CA, USA), 20 µg proteins were separated by SDS-polyacrylamide (10%) gel electrophoresis and transferred to polyvinylidene difluoride (PVDF) membranes (Sigma-Aldrich) using a Mini Trans-Blot cell (Bio-Rad). After blocking, the membrane was probed with anti-TRKB, anti-p-TRKB (Y516), anti-p-TRKB (Y817) (1:500; Cell Signaling, Danvers, MA, USA), anti-ERK, anti-p-ERK (T202/Y204) (1:1000; Cell Signaling), anti-AKT, anti-p-AKT (S473) (1:1000; Cell Signaling), anti-CREB, anti-p-CREB (S133) (1:1000; Millipore, Billerica, MA, USA), anti-BDNF, anti-BCL2 (1:500; Santa Cruz Biotechnology, Santa Cruz, CA, USA), anti-BAX (1:1000; Cell Signaling), anti-β-tubulin (1:500; Sigma-Aldrich), or anti-GAPDH (1:1000, MDBio, Taipei, Taiwan) antibody. The immune complexes were detected using goat anti-mouse or goat anti-rabbit IgG antibody conjugated with horseradish peroxidase (1:5000; GeneTex, Irvine, CA, USA) and chemiluminescent substrate (Millipore).
as §1

[3] = test system: AKT; assay: Western blot, p-AKT; type: cell-based, Human; conditions: 5 µM; induced untreated 81%
Experimental: as §2

[4] = test system: ERK; assay: Western blot, p-ERK; type: cell-based, Human; conditions: 5 µM; induced untreated 79%
Experimental: as §2

[5] = test system: CREB; assay: Western blot, p-CREB; type: cell-based, Human; conditions: 5 µM; induced untreated 81%
Experimental: as §2

[6] = test system: BDNF; assay: Western blot, BDNF; type: cell-based, Human; conditions: 5 µM
Experimental: as §2

[7] = test system: BCL2; assay: Western blot, BCL2; type: cell-based, Human; conditions: 5 µM; induced untreated 72%
Experimental: as §2

[8] = test system: BAX; assay: Western blot, BAX; type: cell-based, Human; conditions: 5 µM; induced untreated 182%
Experimental: as §2

[9] = in vitro; conditions: for Papp at 18 h, 1 μM: PAMPA
Experimental: PAMPA was used to predict the penetration of the tested compounds across the BBB. […] The filter PVDF membrane (pore size 0.45 μm; Millipore) was coated with 4 μL of porcine polar brain lipid (20 mg/mL; Avanti Polar Lipids, Alabaster, AL, USA) in dodecane and the acceptor well filled with 200 μL of 5% DMSO in PBS. The filter plate was carefully placed on the donor plate to form a sandwich plate at room temperature for 18 h. After the permeation time, the filter and donor plates were separated. The concentration of the tested compound in the donor and acceptor wells was measured by an AB Sciex QTrap 5500 mass spectrometer (Applied Biosystems) linked to a 1200 HPLC system (Agilent Technologies, Palo Alto, CA, USA). The concentrations of the QC compounds were determined by a Tecan Infinite M200 Pro microplate reader (Switzerland). The effective permeability coefficient (Pe) was calculated as described. Each compound was tested in triplicate.

[10] = biological target: T1, Aβ42 peptide (Homo sapiens, UniProt P05067); assay: Thioflavin T aggregation assay; type: biochemical; conditions: for Aβ aggregation inhibition (in words): compound 20 μM, thioflavin T assay
T1 construct: Aβ42 peptide (10 μM; Kelowna Int’l Scientific Inc., New Taipei City, Taiwan); purchased Kelowna Int’l Scientific Inc., New Taipei City, Taiwan
Experimental: To form Aβ aggregation, Aβ42 peptide (10 μM; Kelowna Int’l Scientific Inc., New Taipei City, Taiwan) was incubated with tested compounds (5–20 μM) in 150 mM NaCl and 20 mM Tris-HCl (pH8.0) at 37 °C for 48 h. Thioflavin T (10 μM; Sigma-Aldrich) was added to the Aβ mixture and incubated at room temperature for 5 min. The fluorescence intensity was recorded at 420 nm excitation and 485 nm emission by an FLx800 microplate reader (Bio-Tek, Winooski, VT, USA). Half maximal effective concentration (EC50) was estimated by a method of interpolation.

[11] = in vitro; type: cell-based; conditions: human
Experimental: To induce neuronal differentiation, 2 × 10^4 Aβ-GFP SH-SY5Y cells were seeded on a 96-well plate with retinoic acid (10 µM; Sigma-Aldrich). Cells were pretreated with tested compounds (0.2–5 µM) on day 2 for 8 h and then with doxycycline (5 μg/mL) to induce Aβ-GFP expression. Medium containing retinoic acid compound and doxycycline was refreshed every 2 days for 6 days. Then, cells were stained with Hoechst 33342 (0.1 µg/mL; Sigma-Aldrich) at 37 °C for 30 min. Cell images were recorded at 482/35 nm excitation and 536/40 nm emission wavelengths (ImageXpres Micro Confocal High-Content Imaging System; Molecular Devices, Sunnyvale, CA, USA), and analyzed by MetaXpress (Molecular Devices).

T1 sequence (P05067 672-713 limits assumed): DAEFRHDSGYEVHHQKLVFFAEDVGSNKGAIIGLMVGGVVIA

## O=c1cc(-c2ccccc2)oc2c(O)c(O)ccc12 [7,8-DHF, reference compound]
[1]; TRKB shRNA-infected cells, untreated 2.9
  Neurite process number: 3.5
[1]; scrambled shRNA-infected cells, untreated 2.4
  Neurite branch number: 3.0–3.1
[1]; scrambled shRNA-infected cells, untreated 3.5
  Neurite process number: 3.9–4.0
[1]; scrambled shRNA-infected cells, untreated 25.3
  Neurite length: 30.7–30.9 µm
[2]; induced untreated 40%
  p-TRKB (Y516) protein level relative to uninduced cells (100%): 92–100%
[2]; induced untreated 71%
  p-TRKB (Y817) protein level relative to uninduced cells (100%): 94–108%
[2]; scrambled shRNA-infected Aβ-expressing cells, untreated 80%
  TRKB expression relative to uninduced cells (100%): 77–81%
[3]
  p-AKT (S473) protein level relative to uninduced cells (100%): 91–110%
[4]
  p-ERK (T202/Y204) protein level relative to uninduced cells (100%): 95–107%
[5]
  p-CREB (S133) protein level relative to uninduced cells (100%): 98–101%
[6]; induced untreated 42%
  BDNF 14 kDa protein level relative to uninduced cells (100%): 124–140%
[6]; induced untreated 88%
  BDNF 32 kDa protein level relative to uninduced cells (100%): 113–119%
[7]
  BCL2 protein level relative to uninduced cells (100%): 104–116%
[8]
  BAX protein level relative to uninduced cells (100%): 126%
[9]; PAMPA-BBB
  BBB Permeability Classification: High (Pe > 4 × 10^−6 cm/s (high))
[9]; PAMPA-BBB, room temperature 18 h, triplicate
  Measured Pe (effective permeability): 6.32 ± 1.35 10^−6 cm/s

## NC(=O)N1c2ccccc2C=Cc2ccccc21 [Carbamazepine, carbamazepine]
[9]; BBB Permeability Classification
  Papp at 18 h, 1 μM: > 40 nm/s
[9]; Measured Pe (effective permeability)
  Papp at 18 h, 1 μM: 98.5 ± 6 nm/s

## CC(Oc1ccc2cc(C(=O)c3ccccc3)c(=O)oc2c1)C(=O)O (stereo not shown) [ZN009, 2-((3-benzoyl-2-oxo-2H-chromen-7-yl)oxy)propanoic acid]
[10]
  Aβ aggregation inhibition (in words): did not inhibit Aβ aggregation

## O=C(c1ccc(Cl)cc1)c1c(O)c2ccccc2oc1=O [ZN010, 3-(4-chlorobenzoyl)-4-hydroxy-2H-chromen-2-one]
[10]
  Aβ aggregation inhibition (in words): did not inhibit Aβ aggregation

## COc1ccc(C(=O)c2cc3ccc(O)cc3oc2=O)cc1 [ZN011, 7-hydroxy-3-(4-methoxybenzoyl)-2H-chromen-2-one]
[10]
  Aβ aggregation inhibition (in words): did not inhibit Aβ aggregation

## COc1cc(/C=C/C(=O)CC(=O)/C=C/c2ccc(O)c(OC)c2)ccc1O [curcumin, Curcumin, reference compound]
[10]; compound 20 µM, Aβ42 10 μM, 37 °C 2 days, 621 AU without compound, 151 AU without incubation
  Thioflavin T fluorescence (Aβ aggregation): 339 AU
[11]
  viability at 6 days, 10 µM: < 80%
[1]; induced untreated 1.8, uninduced 2.8
  Neurite branch number: 2.4–2.5
[1]; induced untreated 3.3, uninduced 4.4
  Neurite process number: 4.2–4.3
[1]; induced untreated 23.9, uninduced 31.2
  Neurite total length: 29.1–29.3 μm

## lucifer yellow
[9]; PAMPA-BBB, indicates good membrane integrity
  Penetration of integrity marker (in words): undetectable
[9]; PAMPA-BBB, integrity marker
  % Transport: 0.00 (% Transport)
